The source of these data is ChEMBL document CHEMBL1133847, “Fipronil-based photoaffinity probe for Drosophila and human beta 3 GABA receptors” (Bioorg Med Chem Lett, 2001).

Each structure is given as a SMILES string.

The target in this assay is T1, Gamma-aminobutyric acid receptor subunit beta-3 (Homo sapiens, UniProt P28472).
T1 sequence (P28472 whole entry): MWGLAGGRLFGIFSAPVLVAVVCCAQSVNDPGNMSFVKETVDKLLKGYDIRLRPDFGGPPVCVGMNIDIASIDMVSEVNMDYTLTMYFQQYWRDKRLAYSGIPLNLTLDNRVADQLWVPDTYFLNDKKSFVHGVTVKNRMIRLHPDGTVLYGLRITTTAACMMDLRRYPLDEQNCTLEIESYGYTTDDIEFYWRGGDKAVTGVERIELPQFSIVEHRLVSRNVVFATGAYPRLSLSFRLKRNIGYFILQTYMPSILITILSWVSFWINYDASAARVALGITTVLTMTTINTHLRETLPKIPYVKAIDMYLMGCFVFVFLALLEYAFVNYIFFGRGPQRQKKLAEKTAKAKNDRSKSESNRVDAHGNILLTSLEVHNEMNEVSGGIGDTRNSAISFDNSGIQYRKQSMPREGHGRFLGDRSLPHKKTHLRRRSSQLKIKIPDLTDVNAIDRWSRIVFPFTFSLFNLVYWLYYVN
As to the kind of experiment: Inhibition of [3H]EBOB binding to human GABA-A receptor beta3 subunit (range 1-28).

`FC(F)(F)c1cc(Cl)c(-n2cc(C3(C(F)(F)F)N=N3)cn2)c(Cl)c1`: the IC50 (in general, the concentration at which inhibition is half-maximal) was 28 nM. Compound `N#Cc1nn(-c2c(Cl)cc(C(F)(F)F)cc2Cl)c(N)c1[S+]([O-])C(F)(F)F` (configuration not stated) [FIPRONIL] came in with an IC50 of 28 nM.
